Measured values as given in patent publication US8906848B2, “Aureobasidin derivatives and methods of synthesis” (priority 2011, dated 2014).
Where two headings read alike, the source gives them in different places. Starred links: 1 amine or outer side, 2 acyl side, 3 side chain; linkers in the order of their positions; H or OH if unused. Non-standard residues stand in square brackets, D forms with d. Residues, ends and D or L forms follow the SMILES beside them. NMePhe(3-(3-pyridyl)) = CN[C@@H](Cc1cccc(-c2cccnc2)c1)C(=O)O; NMePhe(3-Ph) = CN[C@@H](Cc1cccc(-c2ccccc2)c1)C(=O)O; X2 = CN([C@@H](Cc1cccc(B(O)O)c1)C(=O)[*:2])[*:1]; NMePhe(3-Br) = CN[C@@H](Cc1cccc(Br)c1)C(=O)O; Phe(3-Br) = N[C@@H](Cc1cccc(Br)c1)C(=O)O; X1 = CC[C@@H](C)[C@@H](O[*:1])C(=O)[*:2]; NMeVal(β-OH) = CN[C@H](C(=O)O)C(C)(C)O; aIle = CC[C@@H](C)[C@H](N)C(=O)O; NMeV = CN[C@H](C(=O)O)C(C)C

Tests used:
[1] = animals and humans; cited from earlier work
C. albicans = assay: MIC, broth dilution CLSI M38-A2 with YPD medium (Table 2); assay type: cell-based
Experimental: (§1) The activities of several exemplary compounds of the present invention were assayed according to the CLSI standard M38-A2 titled “Reference Method for Broth Dilution Antifungal Susceptibility Testing of Filamentous Fungi”. However, the RPMI-1640 broth is substituted for a YPD medium formulated according to the following steps: […]
(§2) 1. Dissolve 10 g of BactoYeast extract in 500 ml water
(§3) 2. Dissolve 20 g of BactoPeptone in the above solution
(§4) 3. Dissolve 20 g Dextrose in the above solution* *Ordinary table sugar (sucrose) substituted for dextrose routinely.
(§5) 4. q.s. to 1000 ml with water

Aspergilli, A. fumigatus = conditions: most Aspergilli, most notably A. fumigatus; cited from earlier work
Candida albicans SC5413 = assay: Candidiasis model in immunosuppressed mice, mortality; assay type: in vivo
Experimental: Referring to FIG. 6, Mice, immunosuppressed with cyclophosphamide, were inoculated with 8 log 10 CFU Candida albicans SC5413 and dosed (following inoculation) with 3-pyridyl-mPhe^4-AbA (or a control antibiotic) orally, BID, for four consecutive days. Efficacy was determined by enumerating mortality.

[2] = tested on: Candida species, including C. albicans; conditions: virtually all Candida species; cited from earlier work
[3] = tested on: Cryptococcus species, including C. neoformans; conditions: most Cryptococcus species; cited from earlier work
[4] = Pharmacokinetic study in mice, oral gavage, plasma by HPLC-MS; assay type: in vivo; conditions: single 200 mg/kg oral gavage
Experimental: Referring to FIG. 5, mice were administered a single 200 mg/kg bolus dose of 3-pyridyl-mPhe^4-AbA (diamonds) or AbA (squares), by oral gavage. Blood was collected a timed intervals after administration of the drug and analyzed for compound content by HPLC-MS.

[5] = tested on: Fusarium oxysporum 0893 (ATCC48112); assay: MIC, antifungal spectrum (Table 3); assay type: cell-based; conditions: at 96 hr
Experimental: as §1, §2, §3, §4, §5

[6] = tested on: Trychophyton mentagrophytes 5278 (ATCC MYA-4439); assay: MIC, antifungal spectrum (Table 3); assay type: cell-based; conditions: at 96 hrs
Experimental: as §1, §2, §3, §4, §5

[7] = tested on: Sporothrix schenkii 892 (ATCC14284); assay: MIC, antifungal spectrum (Table 3); assay type: cell-based; conditions: at 96 hrs
Experimental: as §1, §2, §3, §4, §5

[8] = tested on: Trychophyton rubrum 5279 (ATCC MYA-4438); assay: MIC, antifungal spectrum (Table 3); assay type: cell-based; conditions: at 72 hrs
Experimental: as §1, §2, §3, §4, §5

A. fumigatus = assay: MIC, broth dilution CLSI M38-A2 with YPD medium (Table 2); assay type: cell-based; conditions: compound purity ~85%
Experimental: as §1, §2, §3, §4, §5

[9] = YPD medium, compound purity ~85%

Molecule: CCC(C)[C@@H]1NC(=O)[C@@H]2CCCN2C(=O)[C@H](Cc2ccccc2)N(C)C(=O)[C@H](Cc2ccccc2)NC(=O)[C@H](C(C)C)N(C)C(=O)[C@@H](C(C)CC)OC(=O)C(C(C)(C)O)N(C)C(=O)[C@H](CC(C)C)NC(=O)[C@H](C(C)C)N(C)C1=O (stereo in doubt) [AbA (native), Aureobasidin A]
- tolerability [1]: very well tolerated
- MIC for C. albicans (C. albicans; [9]): <0.05 µg/mL
- activity towards Aspergilli (Aspergilli, A. fumigatus): little activity
- ED50 (Candida albicans SC5413; cyclophosphamide-immunosuppressed mice, oral, BID, four consecutive days, mortality): about 25 mg/kg
- efficacy against Candida species [2]: very efficacious
- efficacy against Cryptococcus species [3]: efficacious
- plasma concentration trend at the end of the 12 hour experiment [4]: decreasing

Molecule: CC[C@@H](C)[C@@H]1NC(=O)[C@@H]2CCCN2C(=O)[C@H](Cc2cccc(-c3cccnc3)c2)N(C)C(=O)[C@H](Cc2ccccc2)NC(=O)[C@H](C(C)C)N(C)C(=O)[C@@H]([C@H](C)CC)OC(=O)[C@H](C(C)(C)O)N(C)C(=O)[C@H](CC(C)C)NC(=O)[C@H](C(C)C)N(C)C1=O [3-pyridyl-mPhe^4-AbA] (cyclo([X1][NMeV]F[NMePhe(3-(3-pyridyl))]P[aIle][NMeV]L[NMeVal(β-OH)]))
- MIC for C. albicans (C. albicans): <0.05 µg/mL
- ED50 of native AbA relative to that of 3-pyridyl-mPhe^4-AbA (Candida albicans SC5413; Candidiasis model, mice, oral BID four days): almost four times higher
- MIC [5]: >64 at 96 hr μg/ml
- MIC [6]: 0.5 at 96 hrs μg/ml
- MIC [7]: >64 at 96 hrs μg/ml
- MIC [8]: 2 at 72 hrs μg/ml
- bioavailability and/or clearance as compared to the native drug [4]: enhanced bioavailability and/or a slower clearance
- plasma concentration trend at the end of the 12 hour experiment [4]: still be increasing
- plasma concentrations compared with the same dose of native AbA ([4]; same vehicle): significantly higher plasma concentrations

Molecule: CC[C@@H](C)[C@@H]1NC(=O)[C@@H]2CCCN2C(=O)[C@H](Cc2cccc(B(O)O)c2)N(C)C(=O)[C@H](Cc2ccccc2)NC(=O)[C@H](C(C)C)N(C)C(=O)[C@@H]([C@H](C)CC)OC(=O)[C@H](C(C)(C)O)N(C)C(=O)[C@H](CC(C)C)NC(=O)[C@H](C(C)C)N(C)C1=O [B(OH)2-mPhe^4-AbA] (cyclo([X1][NMeV]F[X2]P[aIle][NMeV]L[NMeVal(β-OH)]))
- MIC for C. albicans (C. albicans): <0.05 µg/mL

Molecule: CC[C@@H](C)[C@@H]1NC(=O)[C@@H]2CCCN2C(=O)[C@H](Cc2cccc(Br)c2)N(C)C(=O)[C@H](Cc2cccc(Br)c2)NC(=O)[C@H](C(C)C)N(C)C(=O)[C@@H]([C@H](C)CC)OC(=O)[C@H](C(C)(C)O)N(C)C(=O)[C@H](CC(C)C)NC(=O)[C@H](C(C)C)N(C)C1=O [Br-Phe^3-Br-mPhe^4-AbA] (cyclo([X1][NMeV][Phe(3-Br)][NMePhe(3-Br)]P[aIle][NMeV]L[NMeVal(β-OH)]))
- MIC for C. albicans (C. albicans): 5 µg/mL

Molecule: CC[C@@H](C)[C@@H]1NC(=O)[C@@H]2CCCN2C(=O)[C@H](Cc2cccc(-c3ccccc3)c2)N(C)C(=O)[C@H](Cc2ccccc2)NC(=O)[C@H](C(C)C)N(C)C(=O)[C@@H]([C@H](C)CC)OC(=O)[C@H](C(C)(C)O)N(C)C(=O)[C@H](CC(C)C)NC(=O)[C@H](C(C)C)N(C)C1=O [Phenyl-mPhe^4-AbA] (cyclo([X1][NMeV]F[NMePhe(3-Ph)]P[aIle][NMeV]L[NMeVal(β-OH)]))
- MIC for C. albicans (C. albicans): <0.05 µg/mL

Molecule: Boronate-mPhe^4-AbA
- MIC for A. fumigatus (A. fumigatus): 10 µg/mL
- MIC for C. albicans (C. albicans; [9]): <0.5 µg/mL

Molecule: Br-mPhe^4-AbA
- MIC for A. fumigatus (A. fumigatus): 2.5 µg/mL
- MIC for C. albicans (C. albicans; [9]): 0.031 µg/mL

Molecule: I-mPhe^4-AbA
- MIC for A. fumigatus (A. fumigatus): >5 µg/mL
- MIC for C. albicans (C. albicans; [9]): 2.5 µg/mL

Molecule: MeO-φ-mPhe^4-AbA
- MIC for C. albicans (C. albicans; [9]): 5 µg/mL
